What was measured:
Colo205 cells = assay: Cell-based proliferation assay for GI50 (CyQUANT), Colo205; details: Homo sapiens, COLO 205, 96 h treatment, read-out: Cellular or Growth Inhibition Activity in Colo205 cells, GI50
Method in brief: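 Cells were seeded at 1000 (PC3), 5000 (Colo205), 6000 (HCT116) or 4000 (HEP3B) per well and left 24 h at 37° C. Compound treatment lasted 96 h. Growth was read by CyQUANT, and GI50 (50% growth inhibition) came from dose-response curves.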

[1] = Measurement of microsomal stability; format: in vitro ADME; details: pooled human liver microsomes, pH 7.4; human liver microsome, 5 μM test compound, 1.0 mg/ml microsomal protein
Method: Metabolic stability measurements in the in vitro using liver microsomes aids in the prediction of the in vivo hepatic clearance and the compound stability towards phase I biotransformation reactions mediated by P450 isozymes.
Pooled human liver microsome (HLM was purchased from BD Gentest (BD BioSciences). The incubations consisted of test compound (5 μM) or control compound (Verapamil), NADPH-generating system solution A (25 mM NADP^+, 66 mM glucose-6-phosphate, 66 mM MgCl2 in H2O), NADPH-generating system solution B (40 U/ml glucose-6-phosphate dehydrogenase in 5 mM sodium citrate) and 1.0 mg/ml microsomal protein, respectively, in 100 mM potassium phosphate buffer (pH 7.4). Samples were incubated for 0, 5, 15, 30, 45, 60 min. Reaction was terminated with ice-cold 80% acetonitrile and 20% DMSO. Samples were subsequently centrifuged at 4° C. for 15 min at 2,000 rpm. 100 μL of the supernatant was transferred to the LC-MS Plate for analysis. Before quantitative analysis, the compound was tuned in LC/MS machine to get the optimized MS condition. Liquid chromatography was performed on a Luna C18 column (Phenomenex U.S.A, Torrance, Calif.) (2×50 mm, 5 μM). % of the compound remaining (by area) at each time point is calculated with respect to time 0 min. Plot % remaining against time (min) to obtain the curve and use the Prism software to obtain the t1/2.

HDAC1 enzyme = biological target: T1, HDAC1 enzyme (Homo sapiens, UniProt Q13547); assay: In vitro HDAC assay for determination of IC50 values (BIOMOL fluorescent-based HDAC activity assay); format: biochemical
T1 construct: Amplification of human HDAC1 coding region from this cDNA library was cloned separately into the baculovirus expression pDEST20 vector; made in house; host or cells: SF9 insect cells, pDEST20-HDAC1 baculovirus
T1 sequence (Q13547 whole entry): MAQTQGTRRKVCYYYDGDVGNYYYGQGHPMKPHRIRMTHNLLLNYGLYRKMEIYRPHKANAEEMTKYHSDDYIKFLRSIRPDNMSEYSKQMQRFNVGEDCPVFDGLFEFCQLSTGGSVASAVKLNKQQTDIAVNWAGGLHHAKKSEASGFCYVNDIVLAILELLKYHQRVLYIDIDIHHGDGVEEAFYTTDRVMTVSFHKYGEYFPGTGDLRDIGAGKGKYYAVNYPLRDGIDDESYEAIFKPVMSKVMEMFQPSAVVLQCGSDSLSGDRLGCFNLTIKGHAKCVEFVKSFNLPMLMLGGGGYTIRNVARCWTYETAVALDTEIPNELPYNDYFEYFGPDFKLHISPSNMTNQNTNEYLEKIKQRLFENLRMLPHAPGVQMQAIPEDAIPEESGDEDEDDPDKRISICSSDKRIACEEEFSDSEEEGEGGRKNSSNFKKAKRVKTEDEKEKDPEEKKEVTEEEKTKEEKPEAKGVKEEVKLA
Method in brief: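 Recombinant GST-HDAC1, cloned from SW620 cDNA and expressed in Sf9 cells, tested in a fluorogenic Fluor de Lys deacetylase assay. Developer was added for 10 min and fluorescence read at 360/460 nm. IC50 came from concentration series.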

Row | SMILES | GI50 (Colo205 cells) | half-life at 5 μM [1] | IC50 (HDAC1 enzyme)
1 | CC(C)c1nc2cc(/C=C/C(=O)NO)ccc2n1CC(C)(C)CN(C)C [Compound 2, 3-[1-(3-Dimethylamino-2,2-dimethyl-propyl)-2-isopropyl-1H-benzoimidazol-5-yl]-N-hydroxy-acrylamide] | 2120 nM | > 30 min | 380 nM
2 | CCN(CC)CCn1c(CCC(F)(F)F)nc2cc(/C=C/C(=O)NO)ccc21 [Compound 14, 3-[1-(2-Diethylamino-ethyl)-2-(3,3,3-trifluoro-propyl)-1H-benzoimidazol-5-yl]-N-hydroxy-acrylamide] | 630 nM | > 30 min | 77 nM
3 | CC(C)NCCn1c(CC(C)(C)C)nc2cc(/C=C/C(=O)NO)ccc21 [Compound 19] | 530 nM | > 30 min | 64 nM
4 | CC(C)Cc1nc2cc(/C=C/C(=O)NO)ccc2n1CCNC(C)C [Compound 35, N-Hydroxy-3-[2-isobutyl-1-(2-isopropylamino-ethyl)-1H-benzoimidazol-5-yl]-acrylamide] | 660 nM | > 30 min | 82 nM
5 | CCCCc1nc2cc(/C=C/C(=O)NO)ccc2n1CCN(C)C(C)C [Compound 78, 3-{2-Butyl-1-[2-(isopropyl-methyl-amino)-ethyl]-1H-benzoimidazol-5-yl}-N-hydroxy-acrylamide] | 540 nM | > 30 min | 44 nM
6 | CCCCCCN(CC)CCn1c(C(F)(F)F)nc2cc(/C=C/C(=O)NO)ccc21 [Compound 118, 3-{1-[2-(Ethyl-hexyl-amino)-ethyl]-2-trifluoromethyl-1H-benzoimidazol-5-yl}-N-hydroxy-acrylamide] | 1880 nM | – | 480 nM
7 | CCCCN(CCCC)CCn1c(CCC)nc2cc(/C=C/C(=O)NO)ccc21 [Compound 119, (E)-3-(1-(2-(dibutylamino)ethyl)-2-propyl-1H-benzo[d]imidazol-5-yl)-N-hydroxyacrylamide] | 770 nM | – | 180 nM
8 | CC(C)(C)CCN(CCn1cnc2cc(/C=C/C(=O)NO)ccc21)CCC(C)(C)C [Compound 124, (E)-3-(1-(2-(bis(3,3-dimethylbutyl)amino)ethyl)-1H-benzo[d]imidazol-5-yl)-N-hydroxyacrylamide] | 540 nM | – | 85 nM
9 | CC(C)CN(CCn1cnc2cc(/C=C/C(=O)NO)ccc21)CC(C)C [Compound 125, (E)-3-(1-(2-(diisobutylamino)ethyl)-1H-benzo[d]imidazol-5-yl)-N-hydroxyacrylamide] | 680 nM | – | 160 nM
10 | CSc1nc2cc(/C=C/C(=O)NO)ccc2n1CC(C)(C)CN(C)C [Compound 129, 3-[1-(3-Dimethylamino-2,2-dimethyl-propyl)-2-methylsulfanyl-1H-benzoimidazol-5-yl]-N-hydroxy-acrylamide] | 3900 nM | – | 770 nM
11 | CC(C)(C)CNCCn1cnc2cc(/C=C/C(=O)NO)ccc21 [Compound 133, 3-{1-[2-(2,2-Dimethyl-propylamino)-ethyl]-1H-benzoimidazol-5-yl}-N-hydroxy-acrylamide] | 560 nM | – | 72 nM
12 | CCCN(CCn1cnc2cc(/C=C/C(=O)NO)ccc21)CC(C)(C)C [Compound 134, 3-(1-{2-[(2,2-Dimethyl-propyl)-propyl-amino]-ethyl}-1H-benzoimidazol-5-yl)-N-hydroxy-acrylamide] | 2300 nM | – | 220 nM
13 | CC(C)(C)CCN(CCn1cnc2cc(/C=C/C(=O)NO)ccc21)CC(F)(F)F [Compound 137, 3-(1-{2-[(3,3-Dimethyl-butyl)-(2,2,2-trifluoro-ethyl)-amino]-ethyl}-1H-benzoimidazol-5-yl)-N-hydroxy-acrylamide] | 1970 nM | – | 93 nM
14 | CCCCN(CCn1cnc2cc(/C=C/C(=O)NO)ccc21)CC(F)(F)F [Compound 138, 3-(1-{2-[Butyl-(2,2,2-trifluoro-ethyl)-amino]-ethyl}-1H-benzoimidazol-5-yl)-N-hydroxy-acrylamide] | 1960 nM | – | 100 nM

These reach a lower GI50 (Colo205 cells). Values come first.

Row | GI50 (Colo205 cells) | half-life at 5 μM [1] | IC50 (HDAC1 enzyme) | SMILES
15 | 480 nM | > 30 min | 70 nM | C=CCCc1nc2cc(/C=C/C(=O)NO)ccc2n1CCN(CC)CC [Compound 11, 3-[2-But-3-enyl-1-(2-diethylamino-ethyl)-1H-benzoimidazol-5-yl]-N-hydroxy-acrylamide]
16 | 510 nM | > 30 min | 64 nM | C#CCCc1nc2cc(/C=C/C(=O)NO)ccc2n1CCN(CC)CC [Compound 12, 3-[2-But-3-ynyl-1-(2-diethylamino-ethyl)-1H-benzoimidazol-5-yl]-N-hydroxy-acrylamide]
17 | 490 nM | – | 110 nM | CCCN(CCC)CCn1cnc2cc(/C=C/C(=O)NO)ccc21 [Compound 120, 3-[1-(2-Dipropylamino-ethyl)-1H-benzoimidazol-5-yl]-N-hydroxy-acrylamide]
18 | 490 nM | – | 79 nM | CC(C)CCN(CCn1cnc2cc(/C=C/C(=O)NO)ccc21)C(C)C [Compound 121, N-Hydroxy-3-(1-{2-[isopropyl-(3-methyl-butyl)-amino]-ethyl}-1H-benzoimidazol-5-yl)-acrylamide]
19 | 150 nM | – | 37 nM | CN(CCn1cnc2cc(/C=C/C(=O)NO)ccc21)CCC(C)(C)C [Compound 122, 3-(1-{2-[(3,3-Dimethyl-butyl)-methyl-amino]-ethyl}-1H-benzoimidazol-5-yl)-N-hydroxy-acrylamide]
20 | 150 nM | – | 27 nM | CCC(CC)CN(C)CCn1cnc2cc(/C=C/C(=O)NO)ccc21 [Compound 123, 3-(1-{2-[(2-Ethyl-butyl)-methyl-amino]-ethyl}-1H-benzoimidazol-5-yl)-N-hydroxy-acrylamide]
21 | 420 nM | – | 42 nM | CC(C)(C)CCNCCn1cnc2cc(/C=C/C(=O)NO)ccc21 [Compound 126, 3-{1-[2-(3,3-Dimethyl-butylamino)-ethyl]-1H-benzoimidazol-5-yl}-N-hydroxy-acrylamide]
22 | 340 nM | – | 78 nM | C=CCCCN(C)CCn1cnc2cc(/C=C/C(=O)NO)ccc21 [Compound 127, N-Hydroxy-3-{1-[2-(methyl-pent-4-enyl-amino)-ethyl]-1H-benzoimidazol-5-yl}-acrylamide]
23 | 140 nM | – | 31 nM | CCCN(CCn1cnc2cc(/C=C/C(=O)NO)ccc21)CCC(C)(C)C [Compound 128, 3-(1-{2-[(3,3-Dimethyl-butyl)-propyl-amino]-ethyl}-1H-benzoimidazol-5-yl)-N-hydroxy-acrylamide]
24 | 330 nM | – | 66 nM | CC(C)(C)CCNCCn1c(CC(C)(C)C)nc2cc(/C=C/C(=O)NO)ccc21 [Compound 131, 3-[1-[2-(3,3-Dimethyl-butylamino)-ethyl]-2-(2,2-dimethyl-propyl)-1H-benzoimidazol-5-yl]-N-hydroxy-acrylamide]
25 | 260 nM | – | 74 nM | CCc1nc2cc(/C=C/C(=O)NO)ccc2n1CCNCCC(C)(C)C [Compound 135, 3-{1-[2-(3,3-Dimethyl-butylamino)-ethyl]-2-ethyl-1H-benzoimidazol-5-yl}-N-hydroxy-acrylamide]
26 | 390 nM | – | 53 nM | CCCc1nc2cc(/C=C/C(=O)NO)ccc2n1CCN(C)CCC(C)(C)C [Compound 136, 3-(1-{2-[(3,3-Dimethyl-butyl)-methyl-amino]-ethyl}-2-propyl-1H-benzoimidazol-5-yl)-N-hydroxy-acrylamide]

From patent US8143282B2, “Heterocyclic compounds” (S*BIO Pte Ltd., priority 2005, dated 2012)
